Results as given in PubChem BioAssay (NCI).
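In this assay, cells in 96-well plates receive the compound at five concentrations for 48 hours. Endpoints are linearly interpolated between the surrounding concentrations. GI50 marks 50% less growth. TGI marks complete inhibition of growth.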

Assays:
Test in all cases: growth of human tumour cells (NCI), 48 h
[1] = system: SK-MEL-2 melanoma
[2] = system: NCI/ADR-RES ovarian
[3] = system: MCF7 breast
[4] = system: DU-145 prostate
[5] = system: KM12 colon
[6] = system: NCI-H23 lung
[7] = system: HCT-15 colon
[8] = system: HOP-92 NSCLC

SMILES | GI50 [1] [µM] | TGI [1] [µM] | GI50 [2] [µM] | TGI [2] [µM] | GI50 [3] [µM] | TGI [3] [µM] | GI50 [4] [µM] | TGI [4] [µM] | GI50 [5] [µM] | TGI [5] [µM] | GI50 [6] [µM] | TGI [6] [µM] | GI50 [7] [µM] | TGI [7] [µM] | TGI [8] [µM] | GI50 [8] [µM]
CC(=O)[C@@]12O[C@@H]1CC1C3CCC4=CC(O)CCC4(C)C3CCC12C (stereo partly specified) | > 100 | > 100 | 20.4 | > 100 | > 100 | > 100 | 15 | 31.8 | 24.7 | > 100 | 55.8 | > 100 | 33.1 | > 100 | – | –
C=C(Br)C(C)(Br)CCC(Br)C(C)(C)Cl (stereo unspecified) | – | 51.6 | – | 54.2 | – | 31.5 | – | 43.1 | – | 32 | – | 36.5 | – | 32.7 | 30.2 | –
O=C1NCC2(CCN(CCCC3(c4ccc(F)cc4)OCCO3)CC2)N1c1ccccc1 | – | > 100 | – | > 100 | – | – | – | > 100 | – | > 100 | – | > 100 | – | > 100 | > 100 | –
Cc1c2c(nn1-c1ccc(S(=O)(=O)/N=C3\SCCC(=O)N3c3ccccc3)cc1)-c1ccccc1CC2 | > 100 | > 100 | > 100 | > 100 | – | – | > 100 | > 100 | > 100 | > 100 | > 100 | > 100 | > 100 | > 100 | > 100 | 81.2
COc1ncnc(NS(=O)(=O)c2ccc(N=C3C(=O)N(CN4CCN(c5c(F)cc6c(=O)c(C(=O)O)cn(C7CC7)c6c5OC)CC4C)c4ccc(Cl)cc43)cc2)c1OC (stereo unspecified) | 35.2 | > 50 | 8.76 | 42.1 | 12 | > 50 | 21 | > 50 | 13 | > 50 | 13.5 | 47.3 | 7.48 | 23 | > 50 | 10.6
Cc1cc2c(cc1Cl)SC(N(N(C)C)S(=O)(=O)c1ccc(Cl)cc1)=NS2(=O)=O | 20.1 | 66.6 | 28 | > 100 | 12.6 | 48.3 | 27.8 | 99.4 | 22.9 | > 100 | 31.2 | > 100 | 25.9 | > 100 | 35.3 | 14.8
CCOC(=O)c1cc2nc3ccccc3c(=O)n2c2ccccc12 | – | > 10 | – | > 10 | – | > 10 | – | > 10 | – | > 10 | – | > 10 | – | > 10 | > 10 | –
O=C(/C=C/c1ccc(Cl)cc1)c1ccc(Nc2ccnc3cc(Cl)ccc23)cc1 | > 100 | > 100 | > 100 | > 100 | 1.56 | > 100 | 27.6 | > 100 | 4.61 | 44.3 | > 100 | > 100 | 23.7 | > 100 | > 100 | > 40.6
CCN(CC)c1ccc(-c2cc(-c3cc(OC)c(OC)c(OC)c3)nc(N3CCOCC3)c2C#N)cc1 | 3.15 | > 26.2 | 0.709 | 27.8 | 2.03 | 17.7 | 2.18 | > 100 | 1.99 | > 85.9 | 5.25 | > 100 | 0.584 | > 66.6 | 4.42 | 0.796
COc1ccc([C@H]2[C@@H](F)C(=O)N2c2cc(OC)c(OC)c(OC)c2)cc1F | 0.303 | > 100 | 0.0424 | > 100 | 0.0364 | > 100 | 0.269 | > 100 | 0.0596 | > 100 | 0.273 | > 100 | 0.0664 | > 100 | 63.9 | 0.266
N#CC(C#N)=CNC(N)=S | – | > 100 | – | > 100 | – | > 100 | – | > 100 | – | > 100 | – | > 100 | – | > 100 | > 100 | –
ClCc1cccc(Cn2cnc3ncnc(Cl)c32)c1 | 5.76 | 22.8 | 2.78 | 9.75 | – | – | 15.2 | 31 | 1.85 | 3.32 | 1.23 | 3.38 | 1.96 | 4.34 | – | –
O=[N+]([O-])C(/C=C(\Cl)n1nnc2ccccc21)=C(/Cl)n1nnc2ccccc21 | – | > 100 | – | > 100 | – | – | – | > 100 | – | > 100 | – | > 100 | – | > 100 | > 100 | –
Fc1cc2[nH]ncc2c2c3c(c(-c4cn[nH]c4)nc12)CCCC3 | 0.842 | 3.46 | 2.38 | 7.9 | 1.45 | 12.8 | 1.09 | 15.5 | 1 | 7.38 | 0.958 | 4.69 | 0.56 | > 61.5 | 5.66 | 1.48
Cc1ccc(S(=O)(=O)Nc2ccccc2C(=O)c2ccc(C)c(C)c2)cc1 | – | > 100 | – | > 100 | – | > 100 | – | > 100 | – | > 100 | – | > 100 | – | > 100 | – | –
C=C1NC(=O)C(C(C)CC)NC(=O)C2CSCC(NC(=O)CCC(=O)O)C(=O)NC(Cc3ccccc3)C(=O)NC(C)C(=O)NC(CC(C)CC)C(=O)NC(C(=O)NC(Cc3ccccc3)C(=O)N3CCCC3C(=O)N2)C(C)OC(=O)C(CO)NC(=O)C(C(O)COC)N(C)C(=O)C(C(C)C)NC(=O)C(CC(C)CC)NC1=O (stereo unspecified) | 0.00485 | > 6 | 0.0304 | > 6 | 0.0124 | > 6 | 0.0238 | > 6 | 0.00529 | > 6 | 0.1 | > 6 | 0.0183 | > 6 | > 4.93 | 0.0668
CC[C@H](Nc1ncnc2nc[nH]c12)c1oc2ccccc2c(=O)c1-c1cccc(F)c1 | 18.4 | 46.7 | 21.3 | > 100 | 21.1 | > 100 | 26.9 | > 100 | 23.7 | > 100 | 29.7 | > 100 | 26.9 | > 100 | 63.7 | 4.99
CC1(C)C2CCC(=O)C1CC2 (stereo unspecified) | – | > 100 | – | > 100 | – | > 100 | – | > 100 | – | > 100 | – | > 100 | – | > 100 | – | –

SMILES | GI50 [1] [µM] | TGI [1] [µM] | GI50 [2] [µM] | TGI [2] [µM] | GI50 [3] [µM] | TGI [3] [µM] | GI50 [4] [µM] | TGI [4] [µM] | GI50 [5] [µM] | TGI [5] [µM] | GI50 [6] [µM] | TGI [6] [µM] | GI50 [7] [µM] | TGI [7] [µM] | TGI [8] [µM] | GI50 [8] [µM]
Cc1cc(-c2ccc3nc(C4CCOCC4)n(CCOC(F)(F)F)c3c2)cn(C)c1=O | 0.988 | 15.5 | 0.918 | – | 0.0586 | – | – | – | 0.724 | 11.4 | 0.518 | 12.8 | – | 4.23 | 36.6 | 0.182
N=Nc1c(OC(=O)Nc2cccc(Cl)c2)[nH]c2ccccc12 | – | 24.4 | – | 21.4 | – | 23.5 | – | 20.3 | – | 14.3 | – | 12.1 | – | 18.9 | 18.1 | –
Cc1cccc(NC(=O)Cn2cnc3sc(C(=O)OC(C)C)c(C)c3c2=O)c1 | 16 | > 50 | – | – | 38.2 | > 50 | 9.33 | 36.6 | 30.3 | > 50 | – | – | 32.6 | > 50 | > 50 | > 50
OCCCCCNCc1cc2cc3c(cc2c2cc(OCc4ccccc4)ccc12)OCO3 | 1.74 | 3.24 | – | – | – | – | 1.54 | 2.88 | 1.62 | 2.97 | – | – | 1.59 | 3.05 | 2.84 | 1.23
COc1cc(OC)cc(-c2cc(=O)c3c(OC)c(OC)c(OC)c(OC)c3o2)c1 | – | 55.1 | – | > 100 | – | > 100 | – | > 100 | – | – | – | > 100 | – | > 100 | 90.8 | –
COc1ccc(-c2nnc(COc3ccc(C(=O)/C=C/c4ccco4)cc3)o2)cc1 | 13.9 | 27.7 | 8.62 | 25 | 1.39 | 3.28 | 2.33 | 5.72 | 1.75 | 3.62 | 7.02 | 20.5 | 1.8 | 4.25 | 16.9 | 2.9
Cc1ccccc1S(=O)(=O)OC1NS(=O)(=O)c2ccccc21 (stereo unspecified) | – | > 100 | – | > 100 | – | > 100 | – | > 100 | – | > 100 | – | > 100 | – | > 100 | > 100 | –
OCC#Cc1ccccc1C#Cc1ccccc1 | 24.1 | 51.3 | 14.8 | 30.8 | 19.5 | 44.4 | 14.9 | 28.2 | 10.8 | 22.9 | 13.7 | 27.6 | 11.5 | 24.8 | – | –
COc1cc2c3c(n(C)c(=O)c2cc1OC)-c1cc2c(cc1/C3=C\CCN)OCO2 | 6.11 | 27 | 0.272 | 2.56 | 0.094 | 1.3 | 0.362 | 11.4 | 0.426 | 2.11 | – | – | 0.679 | 12.8 | 26.5 | 1.32
O=S(=O)(CCn1c(Sc2ccccc2)c(Sc2ccccc2)c2ccccc21)c1ccccc1 | – | > 100 | – | > 100 | – | > 100 | – | > 100 | – | > 100 | – | > 100 | – | > 100 | – | –
O=c1c2sccc2n(CC2COc3ccccc3O2)c(=O)n1O (stereo unspecified) | 23.5 | 80.7 | 23 | > 100 | 5.17 | > 100 | 19.8 | > 100 | 9.21 | 86 | 6.88 | 34.4 | 4.53 | > 100 | – | –
O=C1OC(O)[C@@H]2[C@H]1[C@H]1CC[C@@H]2O1 (stereo partly specified) | 39 | > 82.4 | > 100 | > 100 | > 100 | > 100 | > 87.3 | > 100 | 21.5 | 72.8 | > 100 | > 100 | > 100 | > 100 | > 69.9 | 20.3
CC(C)[C@H]1COC(=O)N1[C@@H]1C(=O)N([C@@H](CCC(=O)N2CCN(C3CCCC3)CC2)C(=O)N[C@@H]2CCCc3ccccc32)[C@@H]1/C=C/c1cccc(Br)c1 | 1.69 | 3.3 | 2.98 | 11.8 | 2.09 | 6.33 | 1.52 | 7.57 | 2.17 | 5.83 | 3.46 | 16.6 | 1.69 | 3.63 | 4.21 | 1.5
CCN1CCN(c2nc(C)cc(N(CCNc3ccnc4cc(Cl)ccc34)Cc3ccc4c(c3)OCO4)n2)CC1 | 1.98 | 3.85 | 2.82 | 10.8 | 1.98 | 5.89 | – | – | 3.97 | 15.2 | 3.44 | 14.2 | 1.46 | 3.26 | 2.67 | 1.17
COc1cccc(-c2nc(-c3ccc(NC(=O)C(C)C)cc3)[nH]c2-c2ccnc(Br)c2)c1 | 2.3 | 6.34 | 3.03 | > 100 | 1.67 | 5.2 | 3.86 | > 100 | 2.96 | > 100 | 2.88 | – | – | – | 48.4 | 3.58
CCN(CC)/C(SCc1ccccc1)=C(\C(Cl)=C(Cl)Cl)[N+](=O)[O-] | – | 45.5 | – | 38 | – | 32.1 | – | 39.2 | – | 36.5 | – | 49.6 | – | 71.7 | – | –
OC(c1nc2ccccc2[nH]1)C(O)C(O)C(O)c1nc2ccccc2[nH]1 (stereo unspecified) | – | > 100 | – | > 100 | – | > 100 | – | > 100 | – | > 100 | – | – | – | > 100 | > 100 | –
O=C(CSc1ccc(Cl)cc1)Nc1ccc(-c2nc3ccccc3s2)c(Cl)c1 | 3.82 | 15.7 | 4.39 | 32.6 | 4.67 | 39.2 | – | – | 3.66 | > 100 | 2.23 | 5.56 | 3.62 | > 100 | – | –
